Assay results from PubChem BioAssay (NCI).
Values joined by “and” are separate entries in the source; they are usually repeats but may differ in a detail not shown here. Equal values may be shown once.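 Following 48 hours of exposure in 96-well plates, responses at five concentrations were used to interpolate endpoints linearly. GI50 = concentration required for 50% inhibition of growth. The concentration for full growth arrest is given as TGI.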

How the values were obtained:
Test in all cases: NCI tumour cell line growth inhibition, 48 h
OVCAR-3 ovarian = tested on: OVCAR-3 ovarian
OVCAR-4 ovarian = tested on: OVCAR-4 ovarian
CCRF-CEM leukemia = tested on: CCRF-CEM leukemia
CAKI-1 renal = tested on: CAKI-1 renal
SK-MEL-5 melanoma = tested on: SK-MEL-5 melanoma
SK-OV-3 ovarian = tested on: SK-OV-3 ovarian
HOP-62 NSCLC = tested on: HOP-62 NSCLC
ACHN renal = tested on: ACHN renal
PC-3 prostate = tested on: PC-3 prostate
RPMI-8226 leukemia = tested on: RPMI-8226 leukemia

Structure (SMILES)	TGI (OVCAR-3 ovarian)	TGI (OVCAR-4 ovarian)	TGI (CCRF-CEM leukemia)	TGI (CAKI-1 renal)	TGI (SK-MEL-5 melanoma)	TGI (SK-OV-3 ovarian)	TGI (HOP-62 NSCLC)	TGI (ACHN renal)	TGI (PC-3 prostate)	TGI (RPMI-8226 leukemia)	GI50 (OVCAR-3 ovarian)	GI50 (OVCAR-4 ovarian)	GI50 (CCRF-CEM leukemia)	GI50 (CAKI-1 renal)	GI50 (ACHN renal)	GI50 (RPMI-8226 leukemia)
CCOC(=O)Cc1nc2c(=O)[nH]cnc2n1C1OC(COC(C)=O)C(OC(C)=O)C1OC(C)=O (stereo not drawn)	> 100 µM	> 100 µM	> 100 µM	> 100 µM	> 100 µM	> 100 µM	> 100 µM	> 100 µM	> 100 µM	> 100 µM						
CSc1nc(Br)nc2c1ncn2C1CC(Oc2ccc(C)cc2)C(COc2ccc(C)cc2)O1 (stereo not drawn)	> 100 µM	> 100 µM	> 100 µM	> 100 µM	> 100 µM	> 100 µM	> 100 µM	> 100 µM	> 100 µM	> 100 µM						
OCc1ccccc1OC1OC(CO)C(O)C(O)C1O (stereo not drawn)	> 100 µM	> 100 µM	> 100 µM	> 100 µM	> 100 µM	> 100 µM	> 100 µM	> 100 µM	> 100 µM	> 100 µM						
COC(=O)CNC(=O)/C=C/[C@H](O[Si](C)(C)C(C)(C)C)[C@H](/C=C/C(=O)NCC(=O)OC)O[Si](C)(C)C(C)(C)C	> 25 µM	> 25 µM	> 25 µM	> 25 µM	> 25 µM	> 25 µM	> 25 µM	> 25 µM	> 25 µM	> 25 µM						
CSC1(SC)CCCCCCCCCCC1	72.7 µM	> 100 µM	48.6 µM	> 100 µM	> 100 µM	> 100 µM	> 100 µM	> 100 µM	> 100 µM	> 100 µM						
COC1=CC2(C=CC1=O)CCN=c1c(O)c3c(c(O)c12)=NC=N3 (stereo not drawn)	> 100 µM	> 100 µM	> 100 µM	> 100 µM	> 100 µM	> 100 µM	> 100 µM	> 100 µM	> 100 µM	> 100 µM						
CN(C)CCNc1nc2ccccc2c2c1C(=O)c1ccccc1-2	8.4 µM	1.41 µM	4.05 µM	2.54 µM	1.92 µM	13.1 µM	3.72 µM	0.601 µM	1.9 µM	0.599 µM						
Cc1nn(C(=O)c2ccccc2O)c2c1C(c1ccc(O)cc1)SC(N)=N2 (stereo not drawn)	> 6.89 µM	> 8.37 µM	> 10 µM	> 10 µM	> 10 µM	> 10 µM	> 10 µM	> 10 µM	> 10 µM	> 5.38 µM						
O=C(O)c1ccc(Nc2cnc3ccc(C(F)(F)F)cc3n2)cc1	98.1 µM	40.7 µM	43.1 µM	30.9 µM	32 µM	> 100 µM	38.9 µM	32.6 µM	42.6 µM	48 µM						
CN1C/C(=C\c2ccccc2[N+](=O)[O-])C(=O)/C(=C/c2ccccc2[N+](=O)[O-])C1	1.64 µM and 0.717 µM	2.27 µM and 0.94 µM	0.542 µM and 0.568 µM	1.41 µM and 0.545 µM	2.31 µM and 2.91 µM	12.8 µM and 10.8 µM	7.8 µM and 8.77 µM	1.46 µM and 0.628 µM	6.45 µM and 3.29 µM		0.503 µM and 0.179 µM	0.708 µM and 0.298 µM	0.226 µM and 0.0611 µM	0.475 µM and 0.234 µM	0.532 µM and 0.228 µM	0.592 µM and 0.116 µM
C=CCOn1c(C=C)nc2c(C)cccc21	7.51 µM	24 µM	3.68 µM	5.25 µM	12.7 µM	12.5 µM	22 µM	7.15 µM	12.1 µM	17.1 µM						
COc1ccccc1OC/C(N=Cc1ccncc1)=N/NC(=O)c1ccncc1	> 100 µM	> 100 µM	> 100 µM	> 100 µM		> 100 µM	> 100 µM	> 100 µM	> 100 µM	> 100 µM						
CCCCCCCC(CC(=O)O)OC(=O)CC(CCCCCCC)OC1OC(C)C(O)C(O)C1OC1OC(C)C(O)C(O)C1O (stereo not drawn)	> 100 µM		> 100 µM	> 100 µM	> 100 µM	> 100 µM	> 100 µM	> 100 µM	> 100 µM	> 100 µM						
BrCC[P+](c1ccccc1)(c1ccccc1)c1ccccc1	11.7 µM	23.1 µM	12.2 µM	25.2 µM	26.3 µM	66.4 µM	20.2 µM	> 100 µM	17.3 µM	8.08 µM						
COc1ccc(C[C@H]2COC(=O)[C@@H]2Cc2cc(OC)c(OC)c(OC)c2)cc1OC	> 100 µM	> 100 µM	> 100 µM	> 100 µM	> 74.4 µM	> 100 µM	> 100 µM	> 100 µM	> 100 µM	> 100 µM						
CN(Cc1nc2c(N)nc(N)nc2nc1N)c1ccc(C(=O)NC(CCC(=O)O)C(=O)O)cc1 (stereo not drawn)	> 100 µM	> 100 µM	> 100 µM	> 88 µM	> 100 µM	> 100 µM	> 100 µM	> 100 µM	> 100 µM	> 100 µM						
COC(=O)C1(Cc2ccccc2)Cc2ccccc2C1=O (stereo not drawn)	> 100 µM	> 100 µM	> 100 µM	> 100 µM	44 µM	> 100 µM	> 100 µM	> 100 µM	> 100 µM	> 100 µM						
